From PubChem BioAssay (NCI)
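96-well plates; 48 h exposure; 5 concentrations. Endpoints by linear interpolation between flanking doses. Not reached: highest tested concentration assigned. Abbreviation: GI50, concentration required for 50% inhibition of growth. At the TGI there is no net growth.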

How the values were obtained:
Assay in all cases: NCI anticancer screen, dose series, 48 h
ACHN renal = tested on: ACHN renal
A549 NSCLC = tested on: A549 NSCLC
U251 CNS = tested on: U251 CNS
HCT-15 colon = tested on: HCT-15 colon
HL-60(TB) leukemia = tested on: HL-60(TB) leukemia
UACC-62 melanoma = tested on: UACC-62 melanoma
OVCAR-8 ovarian = tested on: OVCAR-8 ovarian
HOP-62 NSCLC = tested on: HOP-62 NSCLC
RPMI-8226 leukemia = tested on: RPMI-8226 leukemia
CAKI-1 renal = tested on: CAKI-1 renal

CC(C)(C)CI
TGI (ACHN renal): 58.5 µM | TGI (A549 NSCLC): 73.1 µM | TGI (U251 CNS): 66.4 µM | TGI (HCT-15 colon): > 100 µM | TGI (HL-60(TB) leukemia): 50.4 µM | TGI (UACC-62 melanoma): > 100 µM | TGI (OVCAR-8 ovarian): > 10 µM

COc1nc(NC2OC(CO)C(O)C(O)C2O)c(N)c(=O)[nH]1 (centres undefined)
TGI (A549 NSCLC): > 100 µM | TGI (U251 CNS): > 100 µM | TGI (HCT-15 colon): > 100 µM | TGI (HOP-62 NSCLC): > 100 µM | TGI (HL-60(TB) leukemia): > 100 µM | TGI (UACC-62 melanoma): > 100 µM | TGI (RPMI-8226 leukemia): > 100 µM | TGI (OVCAR-8 ovarian): > 100 µM

CC1OC(CO)(n2cnc3c(N)ncnc32)C(O)C1O (centres undefined)
TGI (A549 NSCLC): > 100 µM | TGI (U251 CNS): > 100 µM | TGI (CAKI-1 renal): > 100 µM | TGI (HCT-15 colon): > 100 µM | TGI (HOP-62 NSCLC): > 100 µM | TGI (HL-60(TB) leukemia): > 100 µM | TGI (UACC-62 melanoma): > 100 µM | TGI (RPMI-8226 leukemia): > 100 µM | TGI (OVCAR-8 ovarian): > 100 µM

COC(=O)Cc1c(C2C(CC(=O)OC)c3ccccc3N2C2OC(CO)C(O)C(O)C2O)[nH]c2ccccc12 (centres undefined)
TGI (A549 NSCLC): > 100 µM | TGI (U251 CNS): > 100 µM | TGI (CAKI-1 renal): > 100 µM | TGI (HCT-15 colon): > 100 µM | TGI (HOP-62 NSCLC): > 100 µM | TGI (UACC-62 melanoma): > 100 µM | TGI (RPMI-8226 leukemia): > 100 µM

CON[N+]([O-])=NC(C)C
TGI (ACHN renal): > 100 µM | TGI (A549 NSCLC): > 100 µM | TGI (U251 CNS): > 100 µM | TGI (CAKI-1 renal): > 100 µM | TGI (HCT-15 colon): > 100 µM | TGI (HOP-62 NSCLC): > 100 µM | TGI (HL-60(TB) leukemia): > 100 µM | TGI (UACC-62 melanoma): > 100 µM | TGI (RPMI-8226 leukemia): > 100 µM | TGI (OVCAR-8 ovarian): > 100 µM

CCCCCCCCCCCCCCCCCCOc1ccccc1COP(=O)(O)OOCC[N+](C)(C)C
GI50 (ACHN renal): 1.45 µM | TGI (ACHN renal): 5.62 µM | GI50 (A549 NSCLC): 5.5 µM | TGI (A549 NSCLC): 23.6 µM | GI50 (CAKI-1 renal): 1.2 µM | TGI (CAKI-1 renal): 4.14 µM | GI50 (HCT-15 colon): 1.64 µM | TGI (HCT-15 colon): 7.87 µM | GI50 (HOP-62 NSCLC): 2.19 µM | TGI (HOP-62 NSCLC): 15.4 µM | GI50 (HL-60(TB) leukemia): 0.846 µM | TGI (HL-60(TB) leukemia): 2.19 µM | GI50 (UACC-62 melanoma): 0.901 µM | TGI (UACC-62 melanoma): 2.82 µM | GI50 (OVCAR-8 ovarian): 1.41 µM | TGI (OVCAR-8 ovarian): 9.22 µM

O=c1oc2ccccc2n1P(=O)(Oc1ccc(Cl)cc1)n1c(=O)oc2ccccc21
TGI (ACHN renal): > 100 µM | TGI (A549 NSCLC): > 100 µM | TGI (U251 CNS): > 100 µM | TGI (CAKI-1 renal): > 100 µM | TGI (HOP-62 NSCLC): > 100 µM | TGI (HL-60(TB) leukemia): > 100 µM | TGI (UACC-62 melanoma): > 100 µM | TGI (OVCAR-8 ovarian): > 100 µM

O=C1OC(c2ccccc2Br)=N/C1=C/c1ccccc1
TGI (ACHN renal): 77.5 µM | TGI (A549 NSCLC): > 100 µM | TGI (U251 CNS): 69.7 µM | TGI (CAKI-1 renal): > 100 µM | TGI (HCT-15 colon): > 100 µM | TGI (HOP-62 NSCLC): 49.4 µM | TGI (HL-60(TB) leukemia): > 100 µM | TGI (UACC-62 melanoma): > 100 µM | TGI (RPMI-8226 leukemia): > 100 µM | TGI (OVCAR-8 ovarian): 59.6 µM

COc1cc(N(CCCl)CCCl)ccc1/C=N\NC(=O)c1cccnc1
GI50 (ACHN renal): 17 µM | TGI (ACHN renal): > 100 µM | GI50 (A549 NSCLC): 12.1 µM | TGI (A549 NSCLC): > 100 µM | GI50 (U251 CNS): 23.8 µM | TGI (U251 CNS): > 100 µM | GI50 (CAKI-1 renal): 9.25 µM | TGI (CAKI-1 renal): 59.2 µM | GI50 (HCT-15 colon): 27.2 µM | TGI (HCT-15 colon): > 100 µM | GI50 (HOP-62 NSCLC): 34.9 µM | TGI (HOP-62 NSCLC): > 100 µM | GI50 (HL-60(TB) leukemia): 11.4 µM | TGI (HL-60(TB) leukemia): 40.4 µM | GI50 (UACC-62 melanoma): 10.5 µM | TGI (UACC-62 melanoma): 29.5 µM | GI50 (RPMI-8226 leukemia): 30.9 µM | TGI (RPMI-8226 leukemia): > 100 µM | GI50 (OVCAR-8 ovarian): 26.5 µM | TGI (OVCAR-8 ovarian): > 100 µM

O=C1CCC2COc3ccc(O)c1c32 (centres undefined)
TGI (ACHN renal): > 100 µM | TGI (A549 NSCLC): > 100 µM | TGI (U251 CNS): > 100 µM | TGI (CAKI-1 renal): > 100 µM | TGI (HCT-15 colon): > 100 µM | TGI (HL-60(TB) leukemia): > 100 µM | TGI (UACC-62 melanoma): > 100 µM | TGI (RPMI-8226 leukemia): > 100 µM | TGI (OVCAR-8 ovarian): > 100 µM

C#CCNC(=O)CC[C@@H](C)[C@H]1CC[C@H]2[C@@H]3CC[C@@H]4CC(=O)CC[C@]4(C)[C@H]3CC[C@]12C
GI50 (ACHN renal): 14.9 µM | TGI (ACHN renal): 32.4 µM | GI50 (A549 NSCLC): 17.4 µM | TGI (A549 NSCLC): > 100 µM | GI50 (U251 CNS): 15.8 µM | TGI (U251 CNS): 39.4 µM | GI50 (CAKI-1 renal): 12.8 µM | TGI (CAKI-1 renal): 29.2 µM | GI50 (HCT-15 colon): 12.1 µM | TGI (HCT-15 colon): 36.3 µM | GI50 (HOP-62 NSCLC): 16.6 µM | TGI (HOP-62 NSCLC): 40.4 µM | GI50 (HL-60(TB) leukemia): 3.47 µM | TGI (HL-60(TB) leukemia): 18 µM | GI50 (UACC-62 melanoma): 9.02 µM | TGI (UACC-62 melanoma): 28.6 µM | GI50 (RPMI-8226 leukemia): 1.82 µM | TGI (RPMI-8226 leukemia): 19.1 µM | GI50 (OVCAR-8 ovarian): 6.06 µM | TGI (OVCAR-8 ovarian): 32.8 µM
